In US7491825B2, “Basic non-peptide bradykinin antagonists and pharmaceutical compositions therefrom” (Menarini Ricerche S.p.A., priority 2002, dated 2009):
Structures can show the parent of a compound that is named as a salt.

target: T1, human B2 receptor (Homo sapiens, UniProt P30411); test: binding to the human B2 receptor expressed in human fibroblasts W138; conditions: not given
T1 construct: human B2 receptor expressed in human fibroblasts W138; endogenous in cells; host or cells: human fibroblasts W138 (WI-38)
T1 sequence (P30411 1-391): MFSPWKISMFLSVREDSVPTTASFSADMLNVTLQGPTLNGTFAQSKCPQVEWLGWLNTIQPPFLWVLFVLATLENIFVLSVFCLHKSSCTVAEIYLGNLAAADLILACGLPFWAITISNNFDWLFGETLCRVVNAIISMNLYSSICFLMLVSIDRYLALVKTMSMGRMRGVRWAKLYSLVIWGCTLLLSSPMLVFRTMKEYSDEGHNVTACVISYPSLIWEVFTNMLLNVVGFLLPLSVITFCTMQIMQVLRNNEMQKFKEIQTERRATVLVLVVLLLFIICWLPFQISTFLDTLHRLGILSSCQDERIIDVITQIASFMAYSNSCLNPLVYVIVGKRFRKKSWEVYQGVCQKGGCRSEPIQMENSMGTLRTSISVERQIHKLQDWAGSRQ
Text: In the following the binding values are reported expressed as pKi.

Compound | Ki
Cc1ccc2cccc(OCc3c(Cl)ccc(S(=O)(=O)NC(C)(C)C(=O)N4CCN(C(=N)N)CC4)c3Cl)c2n1 [Example 20, 4-{2-[2,4-Dichloro-3-(2-methyl-quinolin-8-yloxymethyl)-benzenesulfonylamino]-2-methyl-propionyl}-piperazine-1-carboxamidine] | 631 pM
Cc1ccc2cccc(OCc3c(Cl)ccc(S(=O)(=O)NC(C)(C)C(=O)N4CCN(C(=O)CC5CCNCC5)CC4)c3Cl)c2n1 [Example 25, N-{2-[4-2-(Piperidin-4-yl-acetyl)-piperazin-1-yl]-1,1-dimethyl-2-oxo-ethyl}-2,4-dichloro-3-(2-methyl-8-quinolinoxymethyl)-benzenesulfonamide bis trifluoroacetate] | 537 pM
Cc1ccc2cccc(OCc3c(Cl)ccc(S(=O)(=O)NC(C)(C)C(=O)N4CCN(C(=N)NCCCN)CC4)c3Cl)c2n1 [Example 31, N-(3-Amino-propyl)-4-{2-[2,4-dichloro-3-(2-methyl-quinolin-8-yloxymethyl)-benzenesulfonylamino]-2-methyl-propionyl}-piperazine-1-carboxamidine tris trifluoroacetate] | 398 pM
Cc1cc(C)c2cccc(OCc3c(Cl)ccc(S(=O)(=O)NC4(C(=O)N5CCC(N6CCN(C(=O)[C@@H](N)CCCNC(=N)N)CC6)CC5)CCCC4)c3Cl)c2n1 [Example 38] | 501 pM

Second part, the compound after the results:

Ki | Compound
501 pM | CCN=C(NCC)NCCC[C@H](N)C(=O)N1CCN(C(=O)C(C)(C)NS(=O)(=O)c2ccc(Cl)c(COc3cccc4ccc(C)nc34)c2Cl)CC1 [Example 41]
398 pM | CCN=C(NCC)NCCCC[C@H](N)C(=O)N1CCN(C(=O)C2(NS(=O)(=O)c3ccc(Cl)c(COc4cccc5c(C)cc(C)nc45)c3Cl)CCCC2)CC1 [Example 43, (2S)—N-(1-{4-[2-Amino-6-(N′,N″-diethyl-guanidino)-hexanoyl]-piperazine-1-carbonyl}-cyclopentyl)-2,4-dichloro-3-(2,4-dimethyl-quinolin-8-yloxymethyl)-benzenesulfonamide]
79.4 pM | CCN=C(NCC)NCCC[C@H](N)C(=O)N1CCN(C(=O)C2(NS(=O)(=O)c3ccc(Cl)c(COc4cccc5c(C)cc(C)nc45)c3Cl)CCCC2)CC1 [Example 44]
631 pM | Cc1cc(C)c2cccc(OCc3c(Cl)ccc(S(=O)(=O)NC(C)(C)C(=O)N4CCN(C(=O)[C@@H](N)CCCNC(=N)N)CC4)c3Cl)c2n1 [Example 48, N-[2-[4-(2-(S)-Amino-5-guanidino-pentanoyl)-piperazin-1-yl]-1,1-dimethyl-2-oxo-ethyl]-2,4-dichloro-3-(2,4-dimethyl-quinolin-8-yloxymethyl)-benzenesulfonamide]
398 pM | Cc1ccc2cccc(OCc3c(Cl)ccc(S(=O)(=O)NC(C)(C)C(=O)N4CCN(C(=O)[C@H](N)CCCNC(=N)N)CC4)c3Cl)c2n1 [Example 51, N-[2-[4-(2-(R)-Amino-5-guanidino-pentanoyl)-piperazin-1-yl]-1,1-dimethyl-2-oxo-ethyl]-2,4-dichloro-3-(2-methyl-quinolin-8-yloxymethyl)-benzenesulfonamide]
631 pM | Cc1cc(C)c2cccc(OCc3c(Cl)ccc(S(=O)(=O)NC4(C(=O)N5CCN(C(=O)[C@H](N)CCCCNC(=N)N)CC5)CCCC4)c3Cl)c2n1 [Example 64, N-[1-[4-(2-(R)-Amino-6-guanidino-hexanoyl)-piperazine-1-carbonyl]-cyclopentyl]-2,4-dichloro-3-(2,4-dimethyl-quinolin-8-yloxymethyl)-benzenesulfonamide tris trifluoroacetate]
631 pM | CC[C@@](C)(NS(=O)(=O)c1ccc(Cl)c(COc2cccc3c(C)cc(C)nc23)c1Cl)C(=O)N1CCN(C(=O)C[C@@H](N)CCCNC(=N)N)CC1 [Example 70, (R)—N-[4-(3-(S)-Amino-6-guanidino-hexanoyl)-piperazine-1-carbonyl]-1-methyl-propyl]-2,4-dichloro-3-(2,4-dimethyl-quinolin-8-yloxymethyl)-benzenesulfonamide tris trifluoroacetate]

same assay, conditions: human B2 receptor expressed in human fibroblasts W138

Compound | pKi
2,4-Dichloro-3-(2-methyl-quinolin-8-yloxymethyl)-benzenesulfinic acid (2-{4-[2-R-amino-5-(N′,N″-diethyl-guanidino)-pentanoyl]-piperazin-1-yl}-1,1-dimethyl-2-oxo-ethyl)-amide [Example 42] | 9.4
2,4-Dichloro-3-(2-methyl-quinolin-8-yloxymethyl)-benzenesulfinic acid {2-[4-(2-guanidino-ethyl)-piperazin-1-yl]-1,1-dimethyl-2-oxo-ethyl}-amide [Example 40] | 9.7
Cc1cc(C)c2cccc(OCc3c(Cl)ccc(S(=O)(=O)NC(C)(C)C(=O)N4CCN(C(=O)[C@@H](N)CCCCN(C)C)CC4)c3Cl)c2n1 [Example 45, N-[2-[4-(2-(S)-Amino-6-dimethylamino-hexanoyl)-piperazin-1-yl]-1,1-dimethyl-2-oxo-ethyl]-2,4-dichloro-3-(2,4-dimethyl-quinolin-8-yloxymethyl)-benzenesulfonamide] | 9.2
Cc1cc(C)c2cccc(OCc3c(Cl)ccc(S(=O)(=O)N[C@H](C)C(C)C(=O)N4CCN(C(=O)CN5CCN(CCNC(=N)N)CC5)CC4)c3Cl)c2n1.O=C(O)C(F)(F)F.O=C(O)C(F)(F)F.O=C(O)C(F)(F)F.O=C(O)C(F)(F)F (stereo partly shown) [Example 71] | 9.4
Cc1cc(C)c2cccc(OCc3c(Cl)ccc(S(=O)(=O)N[C@H](C)C(C)C(=O)N4CCN(C(=O)C[C@H](CCCNC(=N)N)NC(=N)N)CC4)c3Cl)c2n1.O=C(O)C(F)(F)F.O=C(O)C(F)(F)F.O=C(O)C(F)(F)F (stereo partly shown) [Example 73] | 9.2
Cc1cc(C)c2cccc(OCc3c(Cl)ccc(S(=O)(=O)NC4(C(=O)N5CCN(C(=O)[C@@H](N)CCCC[N+](C)(C)C)CC5)CCCC4)c3Cl)c2n1 [Example 79, N-{1-[4-(2-(S)-Amino-6-trimethylammonium-hexanoyl)-piperazine-1-carbonyl]-cyclopentyl}-2,4-dichloro-3-(2,4-dimethyl-quinolin-8-yloxymethyl)-benzenesulfonamide tris trifluoroacetate] | 9.2

same assay, conditions: human B2 receptor expressed in human fibroblasts W138; read-out: pKi (converted)

Compound | Ki
Cc1ccc2cccc(OCc3c(Cl)ccc(S(=O)(=O)NC(C)(C)C(=O)N4CCN(C(=O)CNC5CCNCC5)CC4)c3Cl)c2n1 [Example 26, N-{2-[4-[N-(4-Piperidyl)glycyl]-piperazin-1-yl]-1,1-dimethyl-2-oxo-ethyl}-2,4-dichloro-3-(2-methyl-8-quinolinoxymethyl)-benzenesulfonamide tris trifluoroacetate] | 501 pM
Cc1ccc2cccc(OCc3c(Cl)ccc(S(=O)(=O)NC(C)(C)C(=O)N4CCN(C(=O)C[C@@H](N)CCCN(C)C)CC4)c3Cl)c2n1 [Example 29, N-{2-[4-(3-(S)-Amino-6-dimethylamino-hexanoyl)-piperazin-1-yl]-1,1-dimethyl-2-oxo-ethyl}-2,4-dichloro-3-(2-methyl-8-quinolinoxymethyl)-benzenesulfonamide tris trifluoroacetate] | 631 pM
Cc1ccc2cccc(OCc3c(Cl)ccc(S(=O)(=O)NC(C)(C)C(=O)N4CCN(C(=O)C[C@@H](N)CCCCN(C)C)CC4)c3Cl)c2n1 [Example 30, N-{2-[4-(3-(S)-Amino-7-dimethylamino-heptanoyl)-piperazin-1-yl]-1,1-dimethyl-2-oxo-ethyl}-2,4-dichloro-3-(2-methyl-8-quinolinoxymethyl)-benzenesulfonamide tris trifluoroacetate] | 794 pM

The remaining lines, values ahead:

Ki | Compound
501 pM | Cc1cc(C)c2cccc(OCc3c(Cl)ccc(S(=O)(=O)NC(C)(C)C(=O)N4CCN(C(=O)C[C@@H](N)CCCN(C)C)CC4)c3Cl)c2n1 [Example 46, N-[2-[4-(3-(S)-Amino-6-dimethylamino-hexanoyl)-piperazin-1-yl]-1,1-dimethyl-2-oxo-ethyl]-2,4-dichloro-3-(2,4-dimethyl-quinolin-8-yloxymethyl)-benzenesulfonamide]
501 pM | CC[C@@](C)(NS(=O)(=O)c1ccc(Cl)c(COc2cccc3c(C)cc(C)nc23)c1Cl)C(=O)N1CCN(C(=O)[C@@H](N)CCCCN(C)C)CC1 [Example 61, (R)—N-[1-[4-(2-(S)-Amino-6-dimethylamino-hexanoyl)-piperazine-1-carbonyl]-1-methyl-propyl]-2,4-dichloro-3-(2,4-dimethyl-quinolin-8-yloxymethyl)-benzenesulfonamide tris trifluoroacetate]
794 pM | Cc1cc(C)c2cccc(OCc3c(Cl)ccc(S(=O)(=O)NC4(C(=O)N5CCN(C(=O)CCCCCNC(=N)N)CC5)CCCC4)c3Cl)c2n1 [Example 67, N-[1-[4-(6-Guanidino-hexanoyl)-piperazine-1-carbonyl]-cyclopentyl]-2,4-dichloro-3-(2,4-dimethyl-quinolin-8-yloxymethyl)-benzenesulfonamide bis trifluoroacetate]
398 pM | CC[C@@](C)(NS(=O)(=O)c1ccc(Cl)c(COc2cccc3c(C)cc(C)nc23)c1Cl)C(=O)N1CCN(C(=O)C[C@@H](N)CCCN)CC1 [Example 72, (R)—N-[4-(3-(S)-Amino-6-amino-hexanoyl)-piperazine-1-carbonyl]-1-methyl-propyl]-2,4-dichloro-3-(2,4-dimethyl-quinolin-8-yloxymethyl)-benzenesulfonamide tris trifluoroacetate]
794 pM | CC[C@@](C)(NS(=O)(=O)c1ccc(Cl)c(COc2cccc3c(C)cc(C)nc23)c1Cl)C(=O)N1CCN(C(=O)C[C@@H](N)CCCN(C)C)CC1 [Example 74, (R)—N-[4-(3-(S)-Amino-6-dimethylamino-hexanoyl)-piperazine-1-carbonyl]-1-methyl-propyl]-2,4-dichloro-3-(2,4-dimethyl-quinolin-8-yloxymethyl)-benzenesulfonamide tris trifluoroacetate]
